Laboratory results published in ChEMBL document CHEMBL6109120, “Discovery of Novel SIK2/3 Inhibitors for the Potential Treatment of MEF2C+ Acute Myeloid Leukemia (AML)” (J Med Chem, 2025).

Legend:
[1] = target: T1, Cyclin-G-associated kinase (Homo sapiens, UniProt O14976)
T1 sequence (O14976 whole entry): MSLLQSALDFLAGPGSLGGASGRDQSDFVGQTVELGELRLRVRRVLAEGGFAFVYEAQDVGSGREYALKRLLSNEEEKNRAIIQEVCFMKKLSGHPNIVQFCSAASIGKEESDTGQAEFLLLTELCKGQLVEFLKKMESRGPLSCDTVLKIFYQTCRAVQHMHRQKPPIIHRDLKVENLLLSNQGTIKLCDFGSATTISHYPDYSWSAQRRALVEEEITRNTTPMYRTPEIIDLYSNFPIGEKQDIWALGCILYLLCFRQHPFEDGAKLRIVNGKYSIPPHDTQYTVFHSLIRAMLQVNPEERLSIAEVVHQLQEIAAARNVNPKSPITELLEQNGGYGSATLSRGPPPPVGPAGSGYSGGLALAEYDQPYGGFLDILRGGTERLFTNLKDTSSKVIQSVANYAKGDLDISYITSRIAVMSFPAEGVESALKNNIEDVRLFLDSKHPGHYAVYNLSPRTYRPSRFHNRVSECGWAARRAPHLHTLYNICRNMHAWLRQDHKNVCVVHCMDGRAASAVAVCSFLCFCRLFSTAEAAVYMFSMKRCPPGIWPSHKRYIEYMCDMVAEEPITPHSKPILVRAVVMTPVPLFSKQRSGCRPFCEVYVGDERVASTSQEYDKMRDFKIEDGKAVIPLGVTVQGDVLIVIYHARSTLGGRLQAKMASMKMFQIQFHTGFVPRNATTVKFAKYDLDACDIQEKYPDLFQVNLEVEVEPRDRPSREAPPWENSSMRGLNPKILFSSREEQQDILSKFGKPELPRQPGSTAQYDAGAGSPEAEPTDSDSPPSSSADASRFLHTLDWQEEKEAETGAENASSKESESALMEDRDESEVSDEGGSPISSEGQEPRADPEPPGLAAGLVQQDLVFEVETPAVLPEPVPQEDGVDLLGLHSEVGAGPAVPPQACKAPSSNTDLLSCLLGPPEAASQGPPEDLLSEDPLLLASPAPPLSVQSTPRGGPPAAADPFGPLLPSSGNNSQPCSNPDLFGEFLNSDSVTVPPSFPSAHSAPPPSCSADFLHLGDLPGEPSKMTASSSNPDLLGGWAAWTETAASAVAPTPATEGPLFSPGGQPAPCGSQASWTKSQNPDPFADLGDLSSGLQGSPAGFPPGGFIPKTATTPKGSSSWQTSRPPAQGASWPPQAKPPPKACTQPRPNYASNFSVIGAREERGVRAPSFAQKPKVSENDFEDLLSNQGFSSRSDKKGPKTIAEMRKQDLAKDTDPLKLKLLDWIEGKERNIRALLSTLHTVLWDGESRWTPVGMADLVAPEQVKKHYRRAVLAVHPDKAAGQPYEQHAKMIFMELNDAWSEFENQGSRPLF
Description: Binding affinity to human GAK by KINOMEscan assay

Cytochrome P450 2D6 = Cytochrome P450 2D6 (Homo sapiens, UniProt P10635); assay: Inhibition of CYP2D6 in human liver microsomes assessed as dextromethorphan O-demethylation reaction measured after 30 mins by LC/MS/MS analysis; assay type: ADME, Microsome
Chain of Cytochrome P450 2D6 (P10635 whole entry): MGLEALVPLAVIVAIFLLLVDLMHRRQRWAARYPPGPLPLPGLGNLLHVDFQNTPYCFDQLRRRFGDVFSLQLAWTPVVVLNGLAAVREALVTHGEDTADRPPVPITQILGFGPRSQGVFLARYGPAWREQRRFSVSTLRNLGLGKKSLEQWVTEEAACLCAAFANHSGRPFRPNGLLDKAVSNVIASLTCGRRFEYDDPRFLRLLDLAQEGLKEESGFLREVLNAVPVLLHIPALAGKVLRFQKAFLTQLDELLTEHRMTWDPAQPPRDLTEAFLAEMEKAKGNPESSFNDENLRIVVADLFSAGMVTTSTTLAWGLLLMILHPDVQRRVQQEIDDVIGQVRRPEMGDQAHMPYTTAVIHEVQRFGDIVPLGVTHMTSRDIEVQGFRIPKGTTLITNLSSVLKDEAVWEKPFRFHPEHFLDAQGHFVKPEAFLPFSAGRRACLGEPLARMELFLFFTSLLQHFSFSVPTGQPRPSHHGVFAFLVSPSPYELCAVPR

[2] = target: Voltage-gated inwardly rectifying potassium channel KCNH2 (Homo sapiens, UniProt Q12809); assay: Inhibition of hERG expressed in HEK cells assessed as K+ tail current by whole-cell electrophysiology; assay type: toxicity, cell-based
Chain of Voltage-gated inwardly rectifying potassium channel KCNH2 (Q12809 whole entry): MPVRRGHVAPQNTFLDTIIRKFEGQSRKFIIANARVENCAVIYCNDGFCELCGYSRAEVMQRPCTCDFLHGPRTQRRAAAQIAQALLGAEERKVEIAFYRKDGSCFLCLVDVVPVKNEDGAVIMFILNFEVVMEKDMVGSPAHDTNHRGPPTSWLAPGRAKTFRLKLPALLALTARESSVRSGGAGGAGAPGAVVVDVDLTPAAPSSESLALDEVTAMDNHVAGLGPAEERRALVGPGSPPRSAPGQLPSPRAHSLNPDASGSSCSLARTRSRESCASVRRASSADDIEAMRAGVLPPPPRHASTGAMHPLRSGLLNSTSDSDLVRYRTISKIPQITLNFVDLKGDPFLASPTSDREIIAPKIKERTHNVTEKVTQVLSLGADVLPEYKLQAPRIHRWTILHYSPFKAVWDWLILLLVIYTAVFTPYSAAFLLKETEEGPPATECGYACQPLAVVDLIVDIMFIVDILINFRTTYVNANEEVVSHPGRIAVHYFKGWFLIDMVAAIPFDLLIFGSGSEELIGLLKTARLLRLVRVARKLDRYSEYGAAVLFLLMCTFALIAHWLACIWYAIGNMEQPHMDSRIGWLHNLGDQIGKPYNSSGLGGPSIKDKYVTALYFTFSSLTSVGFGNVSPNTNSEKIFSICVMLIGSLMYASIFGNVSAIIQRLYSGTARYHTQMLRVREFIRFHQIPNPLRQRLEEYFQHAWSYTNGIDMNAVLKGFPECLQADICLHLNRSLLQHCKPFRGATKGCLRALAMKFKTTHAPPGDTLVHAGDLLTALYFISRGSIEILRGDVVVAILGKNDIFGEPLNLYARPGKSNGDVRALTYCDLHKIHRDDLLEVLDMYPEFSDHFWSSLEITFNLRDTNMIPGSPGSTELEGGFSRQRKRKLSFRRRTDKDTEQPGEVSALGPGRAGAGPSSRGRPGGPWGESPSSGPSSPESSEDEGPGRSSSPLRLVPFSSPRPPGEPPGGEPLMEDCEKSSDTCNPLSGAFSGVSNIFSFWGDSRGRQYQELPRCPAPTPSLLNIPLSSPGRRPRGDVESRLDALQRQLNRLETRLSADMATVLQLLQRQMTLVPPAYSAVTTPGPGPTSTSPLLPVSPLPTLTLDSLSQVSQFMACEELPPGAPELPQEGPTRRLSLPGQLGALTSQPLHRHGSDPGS

Cytochrome P450 2C9 = Cytochrome P450 2C9 (Homo sapiens, UniProt P11712); assay: Inhibition of CYP2C9 in human liver microsomes assessed as diclofenac 4-hydroxylation reaction measured after 30 mins by LC/MS/MS analysis; assay type: ADME, Microsome
Chain of Cytochrome P450 2C9 (P11712 whole entry): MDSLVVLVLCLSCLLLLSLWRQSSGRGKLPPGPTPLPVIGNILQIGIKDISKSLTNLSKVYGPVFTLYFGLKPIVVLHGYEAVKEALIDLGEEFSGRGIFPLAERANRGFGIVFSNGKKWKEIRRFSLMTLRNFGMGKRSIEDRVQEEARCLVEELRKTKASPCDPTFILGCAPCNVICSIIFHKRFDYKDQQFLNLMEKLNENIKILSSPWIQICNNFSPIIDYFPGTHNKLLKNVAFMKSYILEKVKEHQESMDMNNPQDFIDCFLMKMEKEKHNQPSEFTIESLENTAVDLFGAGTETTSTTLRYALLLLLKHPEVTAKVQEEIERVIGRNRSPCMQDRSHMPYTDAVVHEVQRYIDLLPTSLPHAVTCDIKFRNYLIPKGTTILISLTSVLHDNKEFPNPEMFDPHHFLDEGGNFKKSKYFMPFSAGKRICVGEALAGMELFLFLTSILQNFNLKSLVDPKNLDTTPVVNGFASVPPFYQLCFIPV

[3] = target: T2, Receptor-type tyrosine-protein kinase FLT3 (Homo sapiens, UniProt P36888); assay: Binding affinity to human FLT3 by KINOMEscan assay
T2 sequence (P36888 whole entry): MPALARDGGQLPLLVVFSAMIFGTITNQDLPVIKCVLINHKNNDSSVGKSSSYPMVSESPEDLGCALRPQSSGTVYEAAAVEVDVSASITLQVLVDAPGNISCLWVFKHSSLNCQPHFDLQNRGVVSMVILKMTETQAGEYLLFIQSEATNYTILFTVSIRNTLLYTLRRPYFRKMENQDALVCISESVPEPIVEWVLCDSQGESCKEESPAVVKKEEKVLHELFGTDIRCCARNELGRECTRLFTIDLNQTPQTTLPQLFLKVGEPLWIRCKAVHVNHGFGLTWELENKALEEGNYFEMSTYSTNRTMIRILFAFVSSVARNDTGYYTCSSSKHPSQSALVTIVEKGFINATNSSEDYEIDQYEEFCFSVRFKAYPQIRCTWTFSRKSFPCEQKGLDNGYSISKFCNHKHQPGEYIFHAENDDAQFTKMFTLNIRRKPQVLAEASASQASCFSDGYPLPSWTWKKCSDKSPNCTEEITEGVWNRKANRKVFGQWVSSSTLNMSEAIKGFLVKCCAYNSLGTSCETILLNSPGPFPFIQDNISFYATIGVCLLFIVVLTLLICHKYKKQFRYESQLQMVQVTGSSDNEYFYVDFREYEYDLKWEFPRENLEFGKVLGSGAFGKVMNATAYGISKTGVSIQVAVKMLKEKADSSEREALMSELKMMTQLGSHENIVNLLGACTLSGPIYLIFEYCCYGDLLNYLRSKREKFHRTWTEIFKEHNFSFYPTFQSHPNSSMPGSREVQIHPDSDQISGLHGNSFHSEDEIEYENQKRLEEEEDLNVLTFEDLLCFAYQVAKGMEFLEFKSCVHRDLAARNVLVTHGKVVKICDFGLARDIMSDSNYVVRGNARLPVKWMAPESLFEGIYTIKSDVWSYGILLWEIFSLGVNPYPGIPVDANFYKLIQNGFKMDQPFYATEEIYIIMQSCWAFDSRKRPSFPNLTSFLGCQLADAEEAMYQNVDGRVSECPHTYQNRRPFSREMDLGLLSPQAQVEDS

[4] = target: Platelet-derived growth factor receptor alpha (Homo sapiens, UniProt P16234)
Chain of Platelet-derived growth factor receptor alpha (P16234 whole entry): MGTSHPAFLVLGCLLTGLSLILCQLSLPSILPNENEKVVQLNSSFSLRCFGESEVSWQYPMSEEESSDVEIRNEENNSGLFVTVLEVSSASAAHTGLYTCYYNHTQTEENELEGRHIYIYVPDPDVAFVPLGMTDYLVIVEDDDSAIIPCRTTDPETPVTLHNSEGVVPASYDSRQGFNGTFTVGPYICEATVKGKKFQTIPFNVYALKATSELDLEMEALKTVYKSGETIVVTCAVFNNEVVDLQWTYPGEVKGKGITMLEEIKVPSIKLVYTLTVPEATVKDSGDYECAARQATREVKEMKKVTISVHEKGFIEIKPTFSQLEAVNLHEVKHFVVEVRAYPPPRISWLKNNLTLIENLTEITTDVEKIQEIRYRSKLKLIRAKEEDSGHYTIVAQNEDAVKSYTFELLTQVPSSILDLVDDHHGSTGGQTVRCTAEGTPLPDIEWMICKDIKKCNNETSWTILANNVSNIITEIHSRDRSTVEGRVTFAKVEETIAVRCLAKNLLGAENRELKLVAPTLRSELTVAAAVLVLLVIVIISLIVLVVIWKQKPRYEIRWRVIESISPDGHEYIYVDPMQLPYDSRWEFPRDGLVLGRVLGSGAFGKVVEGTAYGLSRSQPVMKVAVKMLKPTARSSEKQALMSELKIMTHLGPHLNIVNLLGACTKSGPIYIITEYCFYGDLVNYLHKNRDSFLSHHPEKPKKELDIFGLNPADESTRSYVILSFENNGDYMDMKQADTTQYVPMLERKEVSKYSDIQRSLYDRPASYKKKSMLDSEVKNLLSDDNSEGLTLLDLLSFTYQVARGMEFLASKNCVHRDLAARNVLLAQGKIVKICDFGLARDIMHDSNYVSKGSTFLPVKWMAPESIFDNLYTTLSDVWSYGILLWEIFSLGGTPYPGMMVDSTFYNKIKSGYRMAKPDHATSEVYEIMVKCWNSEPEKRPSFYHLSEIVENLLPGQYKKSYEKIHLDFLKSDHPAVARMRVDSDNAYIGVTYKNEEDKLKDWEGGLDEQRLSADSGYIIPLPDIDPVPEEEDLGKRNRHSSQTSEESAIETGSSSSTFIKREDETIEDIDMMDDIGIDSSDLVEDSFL
Description: Binding affinity to human PDGFRalpha by KINOMEscan assay

IC50 [1]: 492 nM
IC50 (Cytochrome P450 2D6): > 50000 nM
IC50 (Cytochrome P450 2C9): > 50000 nM
IC50 [3]: 85 nM
IC50 [4]: 31 nM
Compound: COc1nc(-c2cc(-c3cnn(C)c3)cnc2N)cc2c1C(=O)N(CC(F)(F)F)CC2
inhibition (INH) [2]: 34%
